# Laboratory results from US20050085444A1, “Cosmetic or dermatological use of vitamin a or the esters thereof in combination with a partly methylated beta-cyclodextrin” (priority 2002, published 2005).
# Settings: fresh human skin with dermis, control/VAP gel and RAMEB/VAP gel, contact time 24 hours
# Protocol: The study is carried out using the Franz cells characterized above.
# After a contact time of 24 hours, the excess gel on the surface of the skin is washed off with the aid of cotton buds.
# The cotton buds together with the upper part of the cell are immersed in 10 ml of isopropanol and ultrasonicated for 15 minutes and then stirred for 2 hours.
# The solutions are diluted to 1/10 and filtered on a 0.2 μm filter before assaying.
# The stratum corneum is collected by 7 successive strippings (pressure 300 g/cm^2, duration 12 s). The VAP is extracted by solubilization in 2 ml of methanol overnight at 4° C., followed by stirring for 2 hours and finally filtration on a 0.2 μm filter before assaying.
# With the stratum corneum removed, the epidermis is separated from the dermis with the aid of a scalpel.
# The VAP is extracted from the epidermis by solubilization of the latter in 1 ml of methanol overnight at 4° C., followed by stirring for 2 hours and finally filtration on a 0.2 μm filter before assaying.
# The VAP assays are performed by HPLC.
smiles,measurement,value
"CCC(=O)OC/C=C(C)/C=C/C=C(C)/C=C/C1=C(C)CCCC1(C)C [VAP, vitamin A propionate]",VAP detected in the reception liquid,No trace
